Data: ChEMBL document CHEMBL3217477, “Synthesis and biological evaluation of substituted - and -2,3-dihydrofuran naphthoquinones as potent anticandidal agents” (Medchemcomm, 2010)
Converted amounts (≈) assume the structure as drawn.

Legend:
Candida albicans [1] = assay: Antifungal activity against Candida albicans ATCC 90028 assessed as growth inhibition after 24 hrs by microbroth dilution method; type: functional; details: ATCC 90028, 24 h
Kluyveromyces marxianus [2] = assay: Antifungal activity against Candida kefyr assessed as growth inhibition at 250 ug/mL after 24 hrs by hole plate diffusion method; type: functional; details: read-out: IZ
Candida dubliniensis [3] = assay: Antifungal activity against Candida dubliniensis assessed as growth inhibition after 24 hrs by microbroth dilution method; type: functional
Candida dubliniensis [4] = assay: Antifungal activity against Candida dubliniensis assessed as growth inhibition at 250 ug/mL after 24 hrs by hole plate diffusion method; type: functional; details: read-out: IZ
Pichia kudriavzevii [5] = assay: Antifungal activity against Candida krusei assessed as growth inhibition after 24 hrs by microbroth dilution method; type: functional
Candida albicans [6] = assay: Antifungal activity against Candida albicans assessed as growth inhibition after 24 hrs by microbroth dilution method; type: functional
Candida albicans [7] = assay: Antifungal activity against Candida albicans assessed as growth inhibition at 250 ug/mL after 24 hrs by hole plate diffusion method; type: functional; details: read-out: IZ
[8] = Hemolytic activity in Swiss mouse erythrocytes at 50 ug/mL after 1 hr by spectrophotometric analysis relative to control; type: ADME, cell-based, Erythrocyte; details: read-out: Activity
Candida tropicalis [9] = assay: Antifungal activity against Candida tropicalis assessed as growth inhibition at 250 ug/mL after 24 hrs by hole plate diffusion method; type: functional; details: read-out: IZ
Kluyveromyces marxianus [10] = assay: Antifungal activity against Candida kefyr assessed as growth inhibition after 24 hrs by microbroth dilution method; type: functional
[11] = Cytotoxicity against mouse NIH/3T3 cells assessed as dead cells at 12.5 ug/mL after 72 hrs by Alamar Blue assay relative to control; type: cell-based; details: nih3t3, 72 h
Candida parapsilosis [12] = assay: Antifungal activity against Candida parapsilosis assessed as growth inhibition at 250 ug/mL after 24 hrs by hole plate diffusion method; type: functional; details: Lodderomyces parapsilosis, read-out: IZ
Candida parapsilosis [13] = assay: Antifungal activity against Candida parapsilosis assessed as growth inhibition after 24 hrs by microbroth dilution method; type: functional; details: Lodderomyces parapsilosis
Pichia kudriavzevii [14] = assay: Antifungal activity against Candida krusei assessed as growth inhibition at 250 ug/mL after 24 hrs by hole plate diffusion method; type: functional; details: read-out: IZ
Candida tropicalis [15] = assay: Antifungal activity against Candida tropicalis assessed as growth inhibition after 24 hrs by microbroth dilution method; type: functional

SMILES | MIC (Candida albicans [1]) | zone of inhibition at 250 µg/mL (Kluyveromyces marxianus [2]) | MIC (Candida dubliniensis [3]) | zone of inhibition at 250 µg/mL (Candida dubliniensis [4]) | MIC (Pichia kudriavzevii [5]) | MIC (Candida albicans [6]) | zone of inhibition at 250 µg/mL (Candida albicans [7]) | hemolysis at 1 h, 50 ug/mL [8] | zone of inhibition at 250 µg/mL (Candida tropicalis [9]) | MIC (Kluyveromyces marxianus [10]) | mortality [11] | zone of inhibition at 250 µg/mL (Candida parapsilosis [12]) | MIC (Candida parapsilosis [13]) | zone of inhibition at 250 µg/mL (Pichia kudriavzevii [14]) | MIC (Candida tropicalis [15])
CC1(C)CC2=C(O1)C(=O)c1ccccc1C2=O | 54.8 µM (≈ 12.5 µg/mL) | 18.4 mm | 13.7 µM (≈ 3.12 µg/mL) | 15.2 mm | 13.4 µM (≈ 3.06 µg/mL) | 0.54 µM (≈ 0.123 µg/mL) | 21.3 mm | 2.1% | 5.63 mm | 27.4 µM (≈ 6.25 µg/mL) | 20% | 9.29 mm | 110 µM (≈ 25 µg/mL) | 14.6 mm | 3.42 µM (≈ 0.781 µg/mL)
O=C1C(=O)c2ccccc2C2=C1CC(c1ccccc1)O2 (configuration not stated) | 90.5 µM (≈ 25 µg/mL) | 10.8 mm | 5.65 µM (≈ 1.56 µg/mL) | 11.9 mm | 2.82 µM (≈ 0.779 µg/mL) | 45.2 µM (≈ 12.5 µg/mL) | 7.37 mm | 1.98% | 5.7 mm | 5.65 µM (≈ 1.56 µg/mL) | 0% | 7.22 mm | 22.6 µM (≈ 6.25 µg/mL) | 12 mm | 11.3 µM (≈ 3.12 µg/mL)
O=C1C(=O)c2ccccc2C2=C1CC(c1ccc(Cl)cc1)O2 (configuration not stated) | 80.5 µM (≈ 25 µg/mL) | 1.96 mm | 40.2 µM (≈ 12.5 µg/mL) | 9.01 mm | 40.2 µM (≈ 12.5 µg/mL) | 40.2 µM (≈ 12.5 µg/mL) | 1.5 mm | -1.51% | 2.21 mm | 5.02 µM (≈ 1.56 µg/mL) | 0% | 6.11 mm | 10.1 µM (≈ 3.12 µg/mL) | 5.65 mm | 20.1 µM (≈ 6.25 µg/mL)
Cc1ccc(C2CC3=C(O2)C(=O)c2ccccc2C3=O)cc1 (configuration not stated) | 86.2 µM (≈ 25 µg/mL) | 4.27 mm | 43.1 µM (≈ 12.5 µg/mL) | 2.75 mm | 86.2 µM (≈ 25 µg/mL) | 43.1 µM (≈ 12.5 µg/mL) | 10.4 mm | -0.786% | 7.28 mm | 86.2 µM (≈ 25 µg/mL) | 0% | 0 mm | 43.1 µM (≈ 12.5 µg/mL) | 4.94 mm | 43.1 µM (≈ 12.5 µg/mL)
CC1(c2ccccc2)CC2=C(O1)c1ccccc1C(=O)C2=O (configuration not stated) | 45.2 µM (≈ 13.1 µg/mL) | 10.1 mm | 5.65 µM (≈ 1.64 µg/mL) | 12.9 mm | 22.6 µM (≈ 6.57 µg/mL) | 45.2 µM (≈ 13.1 µg/mL) | 8.41 mm | -1.2% | 3.48 mm | 11.3 µM (≈ 3.28 µg/mL) | 0% | 7.34 mm | 45.2 µM (≈ 13.1 µg/mL) | 8.52 mm | 11.3 µM (≈ 3.28 µg/mL)
COc1cccc2c1C(=O)c1c(O)c3c(c(O)c1C2=O)C[C@@](O)(C(=O)CO)C[C@@H]3O[C@H]1C[C@H](N)[C@H](O)[C@H](C)O1 [DOXORUBICIN] |  |  |  |  |  |  |  |  |  |  | 36% |  |  |  | 
Cc1ccc(C2CC3=C(O2)c2ccccc2C(=O)C3=O)c(C)c1 (configuration not stated) | 82.1 µM (≈ 25 µg/mL) | 9.28 mm | 41.1 µM (≈ 12.5 µg/mL) | 4.19 mm | 5.13 µM (≈ 1.56 µg/mL) | 82.1 µM (≈ 25 µg/mL) | 2.93 mm | 4.37% | 7.51 mm | 41.1 µM (≈ 12.5 µg/mL) | 17% | 9 mm | 10.3 µM (≈ 3.12 µg/mL) | 10.8 mm | 41.1 µM (≈ 12.5 µg/mL)
OC(Cn1cncn1)(Cn1cncn1)c1ccc(F)cc1F [FLUCONAZOLE] | 1.63 µM (≈ 0.499 µg/mL) | 21.2 mm | 1.63 µM (≈ 0.499 µg/mL) | 12.8 mm | 104 µM (≈ 32 µg/mL) | 1.63 µM (≈ 0.499 µg/mL) | 13 mm |  | 15 mm | 1.63 µM (≈ 0.499 µg/mL) |  | 10.4 mm | 1.63 µM (≈ 0.499 µg/mL) | 9.64 mm | 313 µM (≈ 96 µg/mL)
CC1(c2ccccc2)CC2=C(O1)C(=O)c1ccccc1C2=O (configuration not stated) | 45.2 µM (≈ 13.1 µg/mL) | 7.42 mm | 45.2 µM (≈ 13.1 µg/mL) | 4.63 mm | 172 µM (≈ 50 µg/mL) | 45.2 µM (≈ 13.1 µg/mL) | 16.1 mm | 4.54% | 3.83 mm | 90.5 µM (≈ 26.3 µg/mL) | 0% | 0 mm | 45.2 µM (≈ 13.1 µg/mL) | 7.05 mm | 45.2 µM (≈ 13.1 µg/mL)
O=C1C2=C(OC(c3ccc(F)cc3)C2)C(=O)c2ccccc21 (configuration not stated) | 85 µM (≈ 25 µg/mL) | 7.28 mm | 42.5 µM (≈ 12.5 µg/mL) | 2.66 mm | 85 µM (≈ 25 µg/mL) | 21.2 µM (≈ 6.25 µg/mL) | 10.3 mm | -1.95% | 3.31 mm | 85 µM (≈ 25 µg/mL) | 0% | 3.86 mm | 42.5 µM (≈ 12.5 µg/mL) | 9.12 mm | 42.5 µM (≈ 12.5 µg/mL)
CCC(C)n1ncn(-c2ccc(N3CCN(c4ccc(OCC5COC(Cn6cncn6)(c6ccc(Cl)cc6Cl)O5)cc4)CC3)cc2)c1=O (configuration not stated) [ITRACONAZOLE] | 0.17 µM (≈ 0.12 µg/mL) | 30.9 mm | 0.02 µM (≈ 0.0141 µg/mL) | 19.4 mm | 0.7 µM (≈ 0.494 µg/mL) | 4.42 µM (≈ 3.12 µg/mL) | 23.1 mm |  | 23.6 mm | 0.08 µM (≈ 0.0565 µg/mL) |  | 26 mm | 0.02 µM (≈ 0.0141 µg/mL) | 30.3 mm | 0.17 µM (≈ 0.12 µg/mL)
O=C1C2=C(OC(c3ccc(Br)cc3)C2)C(=O)c2ccccc21 (configuration not stated) | 70.4 µM (≈ 25 µg/mL) | 0 mm | 70.4 µM (≈ 25 µg/mL) | 0.49 mm | 70.4 µM (≈ 25 µg/mL) | 35.2 µM (≈ 12.5 µg/mL) | 1.39 mm | 2.53% | 0 mm | 70.4 µM (≈ 25 µg/mL) | 0% | 9.18 mm | 35.2 µM (≈ 12.5 µg/mL) | 7.5 mm | 35.2 µM (≈ 12.5 µg/mL)
O=C1C2=C(OC3(C=CC=C3)C2)C(=O)c2ccccc21 | 13.1 µM (≈ 3.28 µg/mL) | 9.3 mm | 3.27 µM (≈ 0.818 µg/mL) | 16.6 mm | 12.8 µM (≈ 3.22 µg/mL) | 2.09 µM (≈ 0.523 µg/mL) | 16.6 mm | 5.92% | 7.8 mm | 52.5 µM (≈ 13.1 µg/mL) | 9% | 0 mm | 13.1 µM (≈ 3.28 µg/mL) | 10.8 mm | 3.27 µM (≈ 0.818 µg/mL)
